Assay results as given in the kinase profiling compilation of Christmann-Franck et al. (2016).
Where “and” joins values, the source holds several entries; their conditions need not be identical. Identical values can stand only once.

Molecular target: KDR (human) (UniProt P35968)
Assay: radiometric filter-binding kinase assay, Kinase HotSpot
Settings: compound 0.5 µM; ATP 10 µM

Compound | residual activity [%]
O=c1c2ccccc2[nH]c(=S)n1CCN1CCC(=C(c2ccc(F)cc2)c2ccc(F)cc2)CC1 | 93.1
O=S(=O)(NCCNC/C=C/c1ccc(Br)cc1)c1cccc2cnccc12 | 79.1

Molecular target: LCK (human) (UniProt P06239)
Assay: as above
Settings: compound 0.5 µM; ATP 10 µM

Compound | residual activity [%]
COc1cc2ncnc(Nc3ccc(O)c(Br)c3)c2cc1OC | 48.9
O=C1NC(=O)c2c1c1c3ccccc3[nH]c1c1[nH]c3cc(Br)ccc3c21 | 88.9
N/C(=N\N=C/c1ccc(-c2cccc([N+](=O)[O-])c2)o1)N[N+](=O)[O-] | 98.6
CCCCc1c(-c2ccc(O)cc2)[nH]c2nccnc12 | 86.8
O=c1c2ccccc2[nH]c(=S)n1CCN1CCC(=C(c2ccc(F)cc2)c2ccc(F)cc2)CC1 | 99.5
O=S(=O)(NCCNC/C=C/c1ccc(Br)cc1)c1cccc2cnccc12 | 103

Molecular target: MAP3K7 TAB1 (human) (UniProt O43318+Q15750)
Assay: as above
Settings: compound 0.5 µM; ATP 10 µM

Compound | residual activity [%]
COc1cc2ncnc(Nc3ccc(O)c(Br)c3)c2cc1OC | 100
O=C1NC(=O)c2c1c1c3ccccc3[nH]c1c1[nH]c3cc(Br)ccc3c21 | 91.4
N/C(=N\N=C/c1ccc(-c2cccc([N+](=O)[O-])c2)o1)N[N+](=O)[O-] | 91.5
CCCCc1c(-c2ccc(O)cc2)[nH]c2nccnc12 | 80.3
O=c1c2ccccc2[nH]c(=S)n1CCN1CCC(=C(c2ccc(F)cc2)c2ccc(F)cc2)CC1 | 103
O=S(=O)(NCCNC/C=C/c1ccc(Br)cc1)c1cccc2cnccc12 | 109

Molecular target: MAP4K5 (human) (UniProt Q9Y4K4)
Assay: as above
Settings: compound 0.5 µM; ATP 10 µM

Compound | residual activity [%]
COc1cc2ncnc(Nc3ccc(O)c(Br)c3)c2cc1OC | 28.9
O=C1NC(=O)c2c1c1c3ccccc3[nH]c1c1[nH]c3cc(Br)ccc3c21 | 42.3
N/C(=N\N=C/c1ccc(-c2cccc([N+](=O)[O-])c2)o1)N[N+](=O)[O-] | 109
CCCCc1c(-c2ccc(O)cc2)[nH]c2nccnc12 | 65.3
O=c1c2ccccc2[nH]c(=S)n1CCN1CCC(=C(c2ccc(F)cc2)c2ccc(F)cc2)CC1 | 98.8
O=S(=O)(NCCNC/C=C/c1ccc(Br)cc1)c1cccc2cnccc12 | 30.9

Molecular target: MAPK14 (human) (UniProt Q16539)
Sequence (Q16539 whole entry, looked up): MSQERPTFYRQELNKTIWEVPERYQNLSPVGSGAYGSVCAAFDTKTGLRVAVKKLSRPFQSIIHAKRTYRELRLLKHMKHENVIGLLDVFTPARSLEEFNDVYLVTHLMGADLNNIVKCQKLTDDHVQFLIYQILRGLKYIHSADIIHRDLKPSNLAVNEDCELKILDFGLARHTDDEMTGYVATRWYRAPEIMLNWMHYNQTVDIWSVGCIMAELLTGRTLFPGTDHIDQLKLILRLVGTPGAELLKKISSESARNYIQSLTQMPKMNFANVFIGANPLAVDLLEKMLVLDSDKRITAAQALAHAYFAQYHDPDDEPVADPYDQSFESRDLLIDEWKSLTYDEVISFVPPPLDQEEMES
Assay: as above
Settings: compound 0.5 µM; ATP 10 µM

Compound | residual activity [%]
COc1cc2ncnc(Nc3ccc(O)c(Br)c3)c2cc1OC | 87.3
O=C1NC(=O)c2c1c1c3ccccc3[nH]c1c1[nH]c3cc(Br)ccc3c21 | 90.6
N/C(=N\N=C/c1ccc(-c2cccc([N+](=O)[O-])c2)o1)N[N+](=O)[O-] | 90.2
CCCCc1c(-c2ccc(O)cc2)[nH]c2nccnc12 | 102
O=c1c2ccccc2[nH]c(=S)n1CCN1CCC(=C(c2ccc(F)cc2)c2ccc(F)cc2)CC1 | 99
O=S(=O)(NCCNC/C=C/c1ccc(Br)cc1)c1cccc2cnccc12 | 105

Molecular target: MINK1 (human) (UniProt Q8N4C8)
Sequence (Q8N4C8 whole entry, looked up): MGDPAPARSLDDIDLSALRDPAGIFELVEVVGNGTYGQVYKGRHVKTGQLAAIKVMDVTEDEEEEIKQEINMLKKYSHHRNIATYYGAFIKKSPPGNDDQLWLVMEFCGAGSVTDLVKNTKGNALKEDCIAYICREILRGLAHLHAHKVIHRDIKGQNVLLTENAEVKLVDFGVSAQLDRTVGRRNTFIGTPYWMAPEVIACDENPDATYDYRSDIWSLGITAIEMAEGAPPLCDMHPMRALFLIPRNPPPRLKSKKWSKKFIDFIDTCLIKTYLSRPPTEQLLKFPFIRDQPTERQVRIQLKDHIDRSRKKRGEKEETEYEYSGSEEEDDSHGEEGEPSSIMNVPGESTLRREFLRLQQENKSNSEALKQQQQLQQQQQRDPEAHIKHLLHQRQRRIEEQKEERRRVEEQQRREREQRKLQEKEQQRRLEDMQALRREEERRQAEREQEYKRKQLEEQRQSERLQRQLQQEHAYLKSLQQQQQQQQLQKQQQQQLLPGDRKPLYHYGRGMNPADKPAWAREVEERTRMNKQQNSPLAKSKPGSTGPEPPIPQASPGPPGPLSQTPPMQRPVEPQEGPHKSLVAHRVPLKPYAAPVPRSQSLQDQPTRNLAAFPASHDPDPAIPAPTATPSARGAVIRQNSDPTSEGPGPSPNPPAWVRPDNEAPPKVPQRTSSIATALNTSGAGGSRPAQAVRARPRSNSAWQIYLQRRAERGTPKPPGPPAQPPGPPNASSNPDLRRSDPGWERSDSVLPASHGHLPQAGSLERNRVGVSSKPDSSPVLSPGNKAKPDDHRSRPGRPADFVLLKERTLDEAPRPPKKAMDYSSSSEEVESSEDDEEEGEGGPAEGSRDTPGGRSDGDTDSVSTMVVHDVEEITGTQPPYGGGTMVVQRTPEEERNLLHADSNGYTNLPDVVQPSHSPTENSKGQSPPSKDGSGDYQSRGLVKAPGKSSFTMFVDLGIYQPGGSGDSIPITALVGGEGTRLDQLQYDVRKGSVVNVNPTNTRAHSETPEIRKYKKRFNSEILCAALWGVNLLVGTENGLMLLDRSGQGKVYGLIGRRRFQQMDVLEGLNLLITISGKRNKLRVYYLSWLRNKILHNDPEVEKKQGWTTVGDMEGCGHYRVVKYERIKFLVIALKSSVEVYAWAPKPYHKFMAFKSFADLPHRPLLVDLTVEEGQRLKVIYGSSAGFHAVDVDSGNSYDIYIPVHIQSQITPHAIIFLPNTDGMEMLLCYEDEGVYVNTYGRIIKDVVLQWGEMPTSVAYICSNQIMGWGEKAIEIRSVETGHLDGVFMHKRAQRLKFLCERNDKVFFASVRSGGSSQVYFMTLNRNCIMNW
Assay: as above
Settings: compound 0.5 µM; ATP 10 µM

Compound | residual activity [%]
COc1cc2ncnc(Nc3ccc(O)c(Br)c3)c2cc1OC | 64.4
O=C1NC(=O)c2c1c1c3ccccc3[nH]c1c1[nH]c3cc(Br)ccc3c21 | 52.2
N/C(=N\N=C/c1ccc(-c2cccc([N+](=O)[O-])c2)o1)N[N+](=O)[O-] | 84.1
CCCCc1c(-c2ccc(O)cc2)[nH]c2nccnc12 | 82
O=c1c2ccccc2[nH]c(=S)n1CCN1CCC(=C(c2ccc(F)cc2)c2ccc(F)cc2)CC1 | 94.4
O=S(=O)(NCCNC/C=C/c1ccc(Br)cc1)c1cccc2cnccc12 | 91.1

Molecular target: MYLK2 (human) (UniProt Q9H1R3)
Sequence (Q9H1R3 whole entry, looked up): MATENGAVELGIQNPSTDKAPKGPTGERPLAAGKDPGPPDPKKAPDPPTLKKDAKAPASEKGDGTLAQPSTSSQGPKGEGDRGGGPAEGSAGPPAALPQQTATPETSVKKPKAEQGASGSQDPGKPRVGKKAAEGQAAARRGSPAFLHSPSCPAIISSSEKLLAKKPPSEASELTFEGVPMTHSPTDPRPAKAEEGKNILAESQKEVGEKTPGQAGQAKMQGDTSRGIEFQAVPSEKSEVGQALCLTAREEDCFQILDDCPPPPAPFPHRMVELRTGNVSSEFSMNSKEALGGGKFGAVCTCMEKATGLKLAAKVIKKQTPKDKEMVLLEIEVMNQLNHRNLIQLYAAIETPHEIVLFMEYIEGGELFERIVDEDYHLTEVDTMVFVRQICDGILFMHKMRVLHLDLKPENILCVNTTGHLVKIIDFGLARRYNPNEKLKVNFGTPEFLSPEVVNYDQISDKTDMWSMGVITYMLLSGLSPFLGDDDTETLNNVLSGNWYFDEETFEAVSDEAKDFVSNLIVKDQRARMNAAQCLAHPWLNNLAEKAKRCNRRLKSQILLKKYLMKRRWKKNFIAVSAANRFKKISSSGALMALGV
Assay: as above
Settings: compound 0.5 µM; ATP 10 µM

Compound | residual activity [%]
COc1cc2ncnc(Nc3ccc(O)c(Br)c3)c2cc1OC | 87.3
O=C1NC(=O)c2c1c1c3ccccc3[nH]c1c1[nH]c3cc(Br)ccc3c21 | 43.3
N/C(=N\N=C/c1ccc(-c2cccc([N+](=O)[O-])c2)o1)N[N+](=O)[O-] | 100
CCCCc1c(-c2ccc(O)cc2)[nH]c2nccnc12 | 95.7
O=c1c2ccccc2[nH]c(=S)n1CCN1CCC(=C(c2ccc(F)cc2)c2ccc(F)cc2)CC1 | 99.9
O=S(=O)(NCCNC/C=C/c1ccc(Br)cc1)c1cccc2cnccc12 | 96.5

Molecular target: NEK9 (human) (UniProt Q8TD19)
Sequence (Q8TD19 whole entry, looked up): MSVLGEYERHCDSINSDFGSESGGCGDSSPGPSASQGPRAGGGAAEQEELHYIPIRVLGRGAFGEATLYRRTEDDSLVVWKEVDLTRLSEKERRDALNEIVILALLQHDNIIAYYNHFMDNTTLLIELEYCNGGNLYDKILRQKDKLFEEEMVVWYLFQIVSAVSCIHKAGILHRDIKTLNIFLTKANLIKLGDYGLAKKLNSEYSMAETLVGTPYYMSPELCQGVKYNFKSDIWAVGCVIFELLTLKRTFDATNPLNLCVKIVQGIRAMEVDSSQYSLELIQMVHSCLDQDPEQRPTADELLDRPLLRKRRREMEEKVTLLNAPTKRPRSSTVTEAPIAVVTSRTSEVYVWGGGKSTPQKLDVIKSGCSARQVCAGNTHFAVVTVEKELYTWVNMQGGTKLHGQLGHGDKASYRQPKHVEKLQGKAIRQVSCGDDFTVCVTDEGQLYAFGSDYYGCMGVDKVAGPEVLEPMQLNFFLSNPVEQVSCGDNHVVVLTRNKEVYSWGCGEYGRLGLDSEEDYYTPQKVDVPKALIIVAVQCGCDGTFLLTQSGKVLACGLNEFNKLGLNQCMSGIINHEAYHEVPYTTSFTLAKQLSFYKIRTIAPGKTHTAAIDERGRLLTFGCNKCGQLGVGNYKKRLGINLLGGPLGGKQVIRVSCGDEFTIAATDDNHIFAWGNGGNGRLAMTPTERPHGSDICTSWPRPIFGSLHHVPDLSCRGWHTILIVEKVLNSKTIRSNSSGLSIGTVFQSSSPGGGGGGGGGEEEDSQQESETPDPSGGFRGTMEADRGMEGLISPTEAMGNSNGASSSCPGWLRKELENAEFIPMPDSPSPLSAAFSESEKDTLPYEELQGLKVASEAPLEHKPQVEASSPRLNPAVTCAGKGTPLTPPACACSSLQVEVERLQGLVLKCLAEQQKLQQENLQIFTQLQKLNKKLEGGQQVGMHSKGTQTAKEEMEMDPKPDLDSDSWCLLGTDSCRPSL
Assay: as above
Settings: compound 0.5 µM; ATP 10 µM

Compound | residual activity [%]
COc1cc2ncnc(Nc3ccc(O)c(Br)c3)c2cc1OC | 104
O=C1NC(=O)c2c1c1c3ccccc3[nH]c1c1[nH]c3cc(Br)ccc3c21 | 83.6
N/C(=N\N=C/c1ccc(-c2cccc([N+](=O)[O-])c2)o1)N[N+](=O)[O-] | 91.8
CCCCc1c(-c2ccc(O)cc2)[nH]c2nccnc12 | 105
O=c1c2ccccc2[nH]c(=S)n1CCN1CCC(=C(c2ccc(F)cc2)c2ccc(F)cc2)CC1 | 97
O=S(=O)(NCCNC/C=C/c1ccc(Br)cc1)c1cccc2cnccc12 | 99.3

Molecular target: PAK6 (human) (UniProt Q9NQU5)
Sequence (Q9NQU5 whole entry, looked up): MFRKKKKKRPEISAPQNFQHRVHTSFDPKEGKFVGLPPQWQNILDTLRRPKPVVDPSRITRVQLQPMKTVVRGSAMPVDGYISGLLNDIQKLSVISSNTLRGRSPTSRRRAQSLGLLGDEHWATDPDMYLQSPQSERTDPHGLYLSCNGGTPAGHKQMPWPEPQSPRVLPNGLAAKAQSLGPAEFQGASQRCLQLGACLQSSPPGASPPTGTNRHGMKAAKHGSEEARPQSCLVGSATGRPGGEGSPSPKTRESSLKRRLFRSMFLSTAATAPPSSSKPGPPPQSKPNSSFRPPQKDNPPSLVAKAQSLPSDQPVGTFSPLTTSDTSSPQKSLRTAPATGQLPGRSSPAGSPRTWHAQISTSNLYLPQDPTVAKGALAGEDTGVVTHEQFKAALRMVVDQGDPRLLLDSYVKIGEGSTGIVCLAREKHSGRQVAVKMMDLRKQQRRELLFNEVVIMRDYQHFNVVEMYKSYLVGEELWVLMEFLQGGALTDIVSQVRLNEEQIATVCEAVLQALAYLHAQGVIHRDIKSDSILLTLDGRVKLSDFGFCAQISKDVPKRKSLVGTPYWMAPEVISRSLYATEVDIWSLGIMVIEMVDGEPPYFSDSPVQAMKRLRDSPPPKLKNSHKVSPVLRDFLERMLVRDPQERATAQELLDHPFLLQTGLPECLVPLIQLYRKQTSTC
Assay: as above
Settings: compound 0.5 µM; ATP 10 µM

Compound | residual activity [%]
COc1cc2ncnc(Nc3ccc(O)c(Br)c3)c2cc1OC | 92.8
O=C1NC(=O)c2c1c1c3ccccc3[nH]c1c1[nH]c3cc(Br)ccc3c21 | 97.7
N/C(=N\N=C/c1ccc(-c2cccc([N+](=O)[O-])c2)o1)N[N+](=O)[O-] | 99
CCCCc1c(-c2ccc(O)cc2)[nH]c2nccnc12 | 94.3
O=c1c2ccccc2[nH]c(=S)n1CCN1CCC(=C(c2ccc(F)cc2)c2ccc(F)cc2)CC1 | 98.4
O=S(=O)(NCCNC/C=C/c1ccc(Br)cc1)c1cccc2cnccc12 | 85.5

Molecular target: PAK7 (human) (UniProt Q9P286)
Sequence (Q9P286 whole entry, looked up): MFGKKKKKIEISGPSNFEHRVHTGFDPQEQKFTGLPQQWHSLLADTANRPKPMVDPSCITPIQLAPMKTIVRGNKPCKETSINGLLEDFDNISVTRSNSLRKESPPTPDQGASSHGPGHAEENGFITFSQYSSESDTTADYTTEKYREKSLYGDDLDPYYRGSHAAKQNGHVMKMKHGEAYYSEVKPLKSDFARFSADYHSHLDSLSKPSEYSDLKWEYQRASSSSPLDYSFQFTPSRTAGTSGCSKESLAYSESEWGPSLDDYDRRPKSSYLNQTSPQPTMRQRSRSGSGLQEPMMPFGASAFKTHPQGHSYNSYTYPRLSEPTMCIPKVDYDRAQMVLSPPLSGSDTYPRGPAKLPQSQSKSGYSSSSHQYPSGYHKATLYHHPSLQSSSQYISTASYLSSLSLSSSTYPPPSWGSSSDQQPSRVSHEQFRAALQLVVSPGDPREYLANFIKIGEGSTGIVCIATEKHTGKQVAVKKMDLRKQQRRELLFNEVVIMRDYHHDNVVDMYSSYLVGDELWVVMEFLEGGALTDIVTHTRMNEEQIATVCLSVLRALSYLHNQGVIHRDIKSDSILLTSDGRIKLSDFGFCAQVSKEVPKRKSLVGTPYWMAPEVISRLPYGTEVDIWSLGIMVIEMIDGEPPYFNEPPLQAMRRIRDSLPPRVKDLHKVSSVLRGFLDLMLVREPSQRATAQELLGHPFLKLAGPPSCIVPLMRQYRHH
Assay: as above
Settings: compound 0.5 µM; ATP 10 µM

Compound | residual activity [%]
COc1cc2ncnc(Nc3ccc(O)c(Br)c3)c2cc1OC | 97.7
O=C1NC(=O)c2c1c1c3ccccc3[nH]c1c1[nH]c3cc(Br)ccc3c21 | 96.7
N/C(=N\N=C/c1ccc(-c2cccc([N+](=O)[O-])c2)o1)N[N+](=O)[O-] | 97
CCCCc1c(-c2ccc(O)cc2)[nH]c2nccnc12 | 82.9
O=c1c2ccccc2[nH]c(=S)n1CCN1CCC(=C(c2ccc(F)cc2)c2ccc(F)cc2)CC1 | 97.4
O=S(=O)(NCCNC/C=C/c1ccc(Br)cc1)c1cccc2cnccc12 | 91.4

Molecular target: PHKG2 (human) (UniProt P15735)
Sequence (P15735 whole entry, looked up): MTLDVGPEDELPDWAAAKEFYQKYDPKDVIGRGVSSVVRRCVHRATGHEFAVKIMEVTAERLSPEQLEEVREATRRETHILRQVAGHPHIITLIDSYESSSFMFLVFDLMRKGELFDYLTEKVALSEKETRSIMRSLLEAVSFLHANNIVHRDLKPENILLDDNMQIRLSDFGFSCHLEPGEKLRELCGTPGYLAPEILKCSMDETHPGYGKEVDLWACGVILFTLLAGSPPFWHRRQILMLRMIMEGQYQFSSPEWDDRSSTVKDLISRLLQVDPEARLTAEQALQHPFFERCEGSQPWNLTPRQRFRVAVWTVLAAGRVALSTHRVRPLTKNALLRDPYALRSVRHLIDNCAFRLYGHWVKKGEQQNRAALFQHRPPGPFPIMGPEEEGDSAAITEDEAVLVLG
Assay: as above
Settings: compound 0.5 µM; ATP 10 µM

Compound | residual activity [%]
COc1cc2ncnc(Nc3ccc(O)c(Br)c3)c2cc1OC | 98
O=C1NC(=O)c2c1c1c3ccccc3[nH]c1c1[nH]c3cc(Br)ccc3c21 | 94.8
N/C(=N\N=C/c1ccc(-c2cccc([N+](=O)[O-])c2)o1)N[N+](=O)[O-] | 100
CCCCc1c(-c2ccc(O)cc2)[nH]c2nccnc12 | 100
O=c1c2ccccc2[nH]c(=S)n1CCN1CCC(=C(c2ccc(F)cc2)c2ccc(F)cc2)CC1 | 100
O=S(=O)(NCCNC/C=C/c1ccc(Br)cc1)c1cccc2cnccc12 | 88.8

Molecular target: PRKD1 (human) (UniProt Q15139)
Assay: as above
Settings: compound 0.5 µM; ATP 10 µM

Compound | residual activity [%]
COc1cc2ncnc(Nc3ccc(O)c(Br)c3)c2cc1OC | 70.1
O=C1NC(=O)c2c1c1c3ccccc3[nH]c1c1[nH]c3cc(Br)ccc3c21 | 51.9
N/C(=N\N=C/c1ccc(-c2cccc([N+](=O)[O-])c2)o1)N[N+](=O)[O-] | 103
CCCCc1c(-c2ccc(O)cc2)[nH]c2nccnc12 | 77.7
O=c1c2ccccc2[nH]c(=S)n1CCN1CCC(=C(c2ccc(F)cc2)c2ccc(F)cc2)CC1 | 101
O=S(=O)(NCCNC/C=C/c1ccc(Br)cc1)c1cccc2cnccc12 | 98.7

Molecular target: PRKG1 (human) (UniProt Q13976)
Assay: as above
Settings: compound 0.5 µM; ATP 10 µM

Compound | residual activity
COc1cc2ncnc(Nc3ccc(O)c(Br)c3)c2cc1OC | 87.1% and 88.9%
O=C1NC(=O)c2c1c1c3ccccc3[nH]c1c1[nH]c3cc(Br)ccc3c21 | 76% and 90.7%
N/C(=N\N=C/c1ccc(-c2cccc([N+](=O)[O-])c2)o1)N[N+](=O)[O-] | 87.4% and 95.8%
CCCCc1c(-c2ccc(O)cc2)[nH]c2nccnc12 | 88.8% and 94.5%
O=c1c2ccccc2[nH]c(=S)n1CCN1CCC(=C(c2ccc(F)cc2)c2ccc(F)cc2)CC1 | 102% and 95.7%
O=S(=O)(NCCNC/C=C/c1ccc(Br)cc1)c1cccc2cnccc12 | 26.3% and 41.1%

Molecular target: PTK6 (human) (UniProt Q13882)
Assay: as above
Settings: compound 0.5 µM; ATP 10 µM

Compound | residual activity [%]
COc1cc2ncnc(Nc3ccc(O)c(Br)c3)c2cc1OC | 20.1
O=C1NC(=O)c2c1c1c3ccccc3[nH]c1c1[nH]c3cc(Br)ccc3c21 | 92.7
N/C(=N\N=C/c1ccc(-c2cccc([N+](=O)[O-])c2)o1)N[N+](=O)[O-] | 101
CCCCc1c(-c2ccc(O)cc2)[nH]c2nccnc12 | 29.7
O=c1c2ccccc2[nH]c(=S)n1CCN1CCC(=C(c2ccc(F)cc2)c2ccc(F)cc2)CC1 | 100
O=S(=O)(NCCNC/C=C/c1ccc(Br)cc1)c1cccc2cnccc12 | 94.2

Molecular target: RAF1 (human) (UniProt P04049)
Assay: as above
Settings: compound 0.5 µM; ATP 10 µM

Compound | residual activity [%]
COc1cc2ncnc(Nc3ccc(O)c(Br)c3)c2cc1OC | 92.1
O=C1NC(=O)c2c1c1c3ccccc3[nH]c1c1[nH]c3cc(Br)ccc3c21 | 97.8
N/C(=N\N=C/c1ccc(-c2cccc([N+](=O)[O-])c2)o1)N[N+](=O)[O-] | 98.1
CCCCc1c(-c2ccc(O)cc2)[nH]c2nccnc12 | 106
O=c1c2ccccc2[nH]c(=S)n1CCN1CCC(=C(c2ccc(F)cc2)c2ccc(F)cc2)CC1 | 96.7
O=S(=O)(NCCNC/C=C/c1ccc(Br)cc1)c1cccc2cnccc12 | 96.4

Molecular target: TSSK2 (human) (UniProt Q96PF2)
Assay: as above
Settings: compound 0.5 µM; ATP 10 µM

Compound | residual activity [%]
COc1cc2ncnc(Nc3ccc(O)c(Br)c3)c2cc1OC | 98.7
O=C1NC(=O)c2c1c1c3ccccc3[nH]c1c1[nH]c3cc(Br)ccc3c21 | 96.9
N/C(=N\N=C/c1ccc(-c2cccc([N+](=O)[O-])c2)o1)N[N+](=O)[O-] | 101
CCCCc1c(-c2ccc(O)cc2)[nH]c2nccnc12 | 96.7
O=c1c2ccccc2[nH]c(=S)n1CCN1CCC(=C(c2ccc(F)cc2)c2ccc(F)cc2)CC1 | 101
O=S(=O)(NCCNC/C=C/c1ccc(Br)cc1)c1cccc2cnccc12 | 104

Molecular target: TTK (human) (UniProt P33981)
Assay: as above
Settings: compound 0.5 µM; ATP 10 µM

Compound | residual activity [%]
COc1cc2ncnc(Nc3ccc(O)c(Br)c3)c2cc1OC | 105
O=C1NC(=O)c2c1c1c3ccccc3[nH]c1c1[nH]c3cc(Br)ccc3c21 | 98.7
N/C(=N\N=C/c1ccc(-c2cccc([N+](=O)[O-])c2)o1)N[N+](=O)[O-] | 95.9
CCCCc1c(-c2ccc(O)cc2)[nH]c2nccnc12 | 91.6
O=c1c2ccccc2[nH]c(=S)n1CCN1CCC(=C(c2ccc(F)cc2)c2ccc(F)cc2)CC1 | 96.3
O=S(=O)(NCCNC/C=C/c1ccc(Br)cc1)c1cccc2cnccc12 | 99.7

Molecular target: ZAP70 (human) (UniProt P43403)
Assay: as above
Settings: compound 0.5 µM; ATP 10 µM

Compound | residual activity [%]
COc1cc2ncnc(Nc3ccc(O)c(Br)c3)c2cc1OC | 99.7
O=C1NC(=O)c2c1c1c3ccccc3[nH]c1c1[nH]c3cc(Br)ccc3c21 | 104
N/C(=N\N=C/c1ccc(-c2cccc([N+](=O)[O-])c2)o1)N[N+](=O)[O-] | 93.1
CCCCc1c(-c2ccc(O)cc2)[nH]c2nccnc12 | 94.4
O=c1c2ccccc2[nH]c(=S)n1CCN1CCC(=C(c2ccc(F)cc2)c2ccc(F)cc2)CC1 | 98
O=S(=O)(NCCNC/C=C/c1ccc(Br)cc1)c1cccc2cnccc12 | 97.9
